The results in this text go back to patent US3996361A, “N^6 -Substituted-9-[3-(4-phenyl-piperazino)-propyl]-adenines” (Boehringer Mannheim G.m.b.H., priority 1974, dated 1976).

The test system of this assay is PCA reaction induced by reaginic (IgE-like) antibodies to egg albumin. Description: inhibition of the passive cutaneous anaphylactic (PCA) reaction in rats induced by reaginic antibodies to egg albumin. Format: in vivo, rat. The procedure: Diethylcarbamazin, i.e. 1-diethylcarbamoyl-4-methylpiperazine, was used as a comparison compound. Specifically, tests were run as follows:
Serum containing reaginic (IgE-like) antibody to egg albumin was prepared by injecting rats intramuscularly with 0.1 ml of a solution of the antigen (10 mg/ml) in saline together with 0.5 ml of Bordetella pertussis vaccine (Behring; 2 × 10^10 organisms/ml). 9-14 Days later the animals were bled from the abdominal aorta; the serum was pooled and stored at -20° C until required. The titer of the serum, i.e. the highest dilution inducing passive cutaneous anaphylaxis (PCA) in the rat following a 48-hour latent period, was between 1:8 and 1:32. For use in these experiments the serum was diluted 1:24.
The animals were anesthetized with 2,2-dichloro-1,1-difluoroethyl-methyl ether, sold under the trademark Penthrane, and were sensitized by injecting 0.1 ml of the antiserum into the shaved abdominal flanks. After 48 hours for reaginic PCA, the animals were given an intravenous injection of 1 ml of saline solution containing 0.5% by weight of egg albumin and 0.25% by weight of Evans blue.
After having killed and exsanguinated the animals, the size in square millimeters and the intensity, in arbitary scores, of the resulting blue spot were determined. The product of these two parameters was used to determine the degree of the reaction and the degree of reaction with no active material was taken as the standard against which to measure % inhibition of the anaphylactic reaction.
6 Animals were used per dose level and for control.
In some instances the test material was injected intravenously (i.v.) immediately before the antigen, using a solution in water containing 0.5% HCl and 2% of dimethylformamide, and in other instances intraperitoneally (i.p.) 20 minutes before the antigen, using a suspension in water containing 1% of methylcellulose. The volume of the injection was varied to give the indicated dosage of active material.

[1] abbreviates: 3 mg/kg i.p. 20 min. before antigen (ovalbumin 5 mg/animal i.v.).
Where [2] appears, read: 3 mg/kg i.v. immediately before antigen (ovalbumin 5 mg/animal i.v.).

Take `CCN(CC)C(=O)N1CCN(C)CC1` [Diethylcarbamazin, 1-diethylcarbamoyl-4-methylpiperazine, reference compound]: the “% Inhibition of PCA, i.p.” value (60 mg/kg i.p. 20 min. before antigen (ovalbumin 5 mg/animal i.v.)) is recorded as 19%. The “% Inhibition of PCA, i.v.” value (60 mg/kg i.v. immediately before antigen (ovalbumin 5 mg/animal i.v.)) was determined as 58%.

Consider `CCCCNc1ncnc2c1ncn2CCCN1CCN(c2ccccc2)CC1` [Ex. 1 (ab), N^6-n-butyl-9-[3-(4-phenyl-piperazino)-propyl]-adenine], for which the “% Inhibition of PCA, i.p.” value under setting [1] was determined as 69%.

Consider `CCNc1ncnc2c1ncn2CCCN1CCN(c2ccccc2)CC1` [Ex. 1 (d), N^6-ethyl-9-[3-(4-phenyl-piperazino)-propyl]-adenine], for which the “% Inhibition of PCA, i.p.” value under setting [1] is 41%. For the same molecule, the “% Inhibition of PCA, i.v.” value under setting [2] was determined as 91%.

As for `CNc1ncnc2c1ncn2CCCN1CCN(c2ccc(F)cc2)CC1` [Ex. 1 (q), N^6-methyl-9-{3-[4-(4-fluorophenyl)-piperazino]-propyl}-adenine], under setting [1], the “% Inhibition of PCA, i.p.” value was found to be 57%.

For the molecule `CNc1ncnc2c1ncn2CCCN1CCN(c2ccc(C)cc2)CC1` [Ex. 1 (y), N^6-methyl-9-{3-[4-(4-methylphenyl)-piperazino]-propyl}-adenine], the “% Inhibition of PCA, i.p.” value under setting [1] amounted to 33%. The “% Inhibition of PCA, i.v.” value under setting [2] is listed as 61%.

Consider `CCCNc1ncnc2c1ncn2CCCN1CCN(c2ccccc2)CC1` [Ex. 2, N^6-n-Propyl-9-[3-(4-phenyl-piperazino)-propyl]-adenine], for which the “% Inhibition of PCA, i.p.” value under setting [1] is 59%. Further, the “% Inhibition of PCA, i.v.” value under setting [2] is given as 83%.
